Test results taken from patent US9783536B2, “Nitrogen-containing heterocyclic compound or salt thereof” (FUJIFILM Corporation, priority 2013, dated 2017).

What was measured:
[1] = target: T1, human PI3Kα protein (Homo sapiens, UniProt P42336); assay: PI3Kα enzyme assay (ADP-Glo); type: biochemical; settings: read-out: PI3Kα enzyme inhibitory activity
T1 construct: purchased Carna Biosciences, Inc; host or cells: baculovirus expression system
How it was run: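 Biotinylated human PI3Kα (baculovirus-expressed, 4.5 nmol/L) pre-incubated 15 min with compound in Tris-HCl pH 7.5, MgCl2, BSA; reaction 60 min at 25° C with 50 μmol/L PIP2 and 100 μmol/L ATP final. ADP quantified by ADP-Glo luminescence; IC50 calculated.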

[2] = target: T2, GST fusion human ERK2 protein (Homo sapiens, UniProt P28482); assay: ERK2 enzyme assay (2); type: biochemical; settings: ERK2 enzyme assay (2); read-out: ERK2 enzyme inhibitory activity (2)
T2 construct: purchased Carna Biosciences, Inc; host or cells: E. coli expression system
How it was run: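 IC50 values come from mobility-shift measurement of phosphorylated versus unphosphorylated 5-FAM peptide substrate after EDTA quench. Beforehand, compound and 1.25 nmol/L E. coli-expressed GST–human ERK2 stood 15 min at room temperature (pH 7.5), then 1 mmol/L ATP and 4.25 μmol/L substrate (final) were added for 120 min at 25 °C.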

T2 sequence (P28482 whole entry, the tested form may be a part): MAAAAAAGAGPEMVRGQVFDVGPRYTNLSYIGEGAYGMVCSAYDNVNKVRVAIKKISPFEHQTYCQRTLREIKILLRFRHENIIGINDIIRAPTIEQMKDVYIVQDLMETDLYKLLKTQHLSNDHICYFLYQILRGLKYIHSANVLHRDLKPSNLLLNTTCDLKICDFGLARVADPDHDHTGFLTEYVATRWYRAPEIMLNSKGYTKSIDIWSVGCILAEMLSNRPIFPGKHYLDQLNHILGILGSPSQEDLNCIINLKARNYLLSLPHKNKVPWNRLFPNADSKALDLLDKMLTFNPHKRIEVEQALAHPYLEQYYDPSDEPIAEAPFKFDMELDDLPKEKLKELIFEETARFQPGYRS
T1 sequence (P42336 whole entry): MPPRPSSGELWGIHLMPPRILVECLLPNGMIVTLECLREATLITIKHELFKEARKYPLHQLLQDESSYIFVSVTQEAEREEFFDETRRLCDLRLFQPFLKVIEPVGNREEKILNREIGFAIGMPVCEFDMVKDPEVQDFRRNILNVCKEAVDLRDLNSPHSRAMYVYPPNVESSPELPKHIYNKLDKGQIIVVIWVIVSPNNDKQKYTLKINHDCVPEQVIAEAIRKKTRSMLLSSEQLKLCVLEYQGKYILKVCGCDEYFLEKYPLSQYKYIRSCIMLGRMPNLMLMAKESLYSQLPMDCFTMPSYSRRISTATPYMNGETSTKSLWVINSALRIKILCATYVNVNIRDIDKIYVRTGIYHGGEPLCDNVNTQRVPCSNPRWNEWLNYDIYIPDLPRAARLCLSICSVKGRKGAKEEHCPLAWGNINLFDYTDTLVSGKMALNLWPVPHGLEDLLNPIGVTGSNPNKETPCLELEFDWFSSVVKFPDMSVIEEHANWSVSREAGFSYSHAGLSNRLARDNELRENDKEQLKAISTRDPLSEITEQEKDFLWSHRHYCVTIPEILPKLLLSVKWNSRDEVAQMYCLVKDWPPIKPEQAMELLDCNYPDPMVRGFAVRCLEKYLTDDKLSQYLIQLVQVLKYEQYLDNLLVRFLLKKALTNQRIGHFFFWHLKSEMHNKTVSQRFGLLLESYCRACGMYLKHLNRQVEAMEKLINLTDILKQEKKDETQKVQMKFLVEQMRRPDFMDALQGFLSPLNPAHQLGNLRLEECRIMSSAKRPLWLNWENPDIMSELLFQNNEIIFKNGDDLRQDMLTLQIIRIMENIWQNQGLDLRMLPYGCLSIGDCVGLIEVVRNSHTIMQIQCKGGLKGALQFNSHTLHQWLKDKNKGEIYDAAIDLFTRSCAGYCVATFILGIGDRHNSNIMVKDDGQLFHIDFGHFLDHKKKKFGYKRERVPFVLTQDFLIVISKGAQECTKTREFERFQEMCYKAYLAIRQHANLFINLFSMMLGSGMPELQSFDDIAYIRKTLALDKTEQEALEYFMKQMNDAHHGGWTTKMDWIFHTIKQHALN
T1 sequence (P27986 whole entry partner): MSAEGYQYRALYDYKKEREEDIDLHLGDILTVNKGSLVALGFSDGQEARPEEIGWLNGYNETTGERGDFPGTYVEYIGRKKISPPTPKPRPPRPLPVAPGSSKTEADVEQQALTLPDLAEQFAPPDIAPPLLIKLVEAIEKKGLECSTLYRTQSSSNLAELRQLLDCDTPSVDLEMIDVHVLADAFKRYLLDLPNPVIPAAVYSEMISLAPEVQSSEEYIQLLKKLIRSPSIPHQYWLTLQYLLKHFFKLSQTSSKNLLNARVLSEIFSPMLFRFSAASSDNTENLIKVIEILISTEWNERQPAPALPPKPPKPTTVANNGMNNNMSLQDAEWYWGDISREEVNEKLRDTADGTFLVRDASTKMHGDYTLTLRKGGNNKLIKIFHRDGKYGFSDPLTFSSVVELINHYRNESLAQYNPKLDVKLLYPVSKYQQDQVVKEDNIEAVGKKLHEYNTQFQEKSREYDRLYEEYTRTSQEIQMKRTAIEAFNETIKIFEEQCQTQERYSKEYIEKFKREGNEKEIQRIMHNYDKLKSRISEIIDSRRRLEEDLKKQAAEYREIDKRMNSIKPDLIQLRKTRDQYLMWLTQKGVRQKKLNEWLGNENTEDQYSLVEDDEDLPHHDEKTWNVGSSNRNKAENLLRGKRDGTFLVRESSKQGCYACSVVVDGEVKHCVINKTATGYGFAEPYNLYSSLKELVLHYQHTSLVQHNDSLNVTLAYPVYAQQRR

Row | IC50 [1] | IC50 [2] | Compound
1 | < 1000 nM | < 1000 nM | CC(C)c1cnnc(Nc2ccc3ncc(C4=CCOCC4)cc3n2)c1 [Example 0580]
2 | < 1000 nM | < 1000 nM | CC(C)c1cnnc(Nc2ccc3ncc(-c4cnn(CC5CC5)c4)cc3n2)c1 [Example 0581]
3 | < 1000 nM | < 1000 nM | CC(C)c1cnnc(Nc2ccc3ncc(-c4cn(C)nc4-c4cnn(C)c4)cc3n2)c1 [Example 0582]
4 | < 1000 nM | < 1000 nM | COc1ccc(-c2nn(C)cc2-c2cnc3ccc(Nc4cc(C(C)C)cnn4)nc3c2)cc1 [Example 0584]
5 | < 1000 nM | < 1000 nM | CCC(CC)c1cnnc(Nc2ccc3ncc(-c4cnn(C)c4)cc3n2)c1 [Example 0585]
6 | < 1000 nM | < 1000 nM | Cn1cc(-c2cnc3ccc(Nc4cc(CC5CCCCC5)cnn4)nc3c2)cn1 [Example 0586]
7 | < 1000 nM | < 1000 nM | Cc1ncc(-c2nn(C)cc2-c2cnc3ccc(Nc4cc(C(C)C)cnn4)nc3c2)s1 [Example 0587]
8 | 1000 to 10000 nM | < 1000 nM | COc1ccc(-c2cnc3ccc(Nc4cc(C(C)C)cnn4)nc3c2)cn1 [Example 0590]
9 | 1000 to 10000 nM | < 1000 nM | COc1ncccc1-c1cnc2ccc(Nc3cc(C(C)C)cnn3)nc2c1 [Example 0591]
10 | < 1000 nM | < 1000 nM | CC(C)c1cnnc(Nc2ccc3ncc(-c4ccc(O)nc4)cc3n2)c1 [Example 0592]
11 | 1000 to 10000 nM | < 1000 nM | CC(C)c1cnnc(Nc2ccc3ncc(-c4cccnc4O)cc3n2)c1 [Example 0593]
12 | < 1000 nM | < 1000 nM | CC(C)c1cnnc(Nc2ccc3ncc(-c4ccc(=O)n(C)c4)cc3n2)c1 [Example 0594, 5-(6-((5-isopropylpyridazin-3-yl)amino)-1,5-naphthyridin-3-yl)-1-methylpyridin-2(1H)-one]
13 | 1000 to 10000 nM | < 1000 nM | CC(C)c1cnnc(Nc2ccc3ncc(-c4cccn(C)c4=O)cc3n2)c1 [Example 0595, 3-(6-((5-Isopropylpyridazin-3-yl)amino)-1,5-naphthyridin-3-yl)-1-methylpyridin-2(1H)-one]
14 | < 1000 nM | < 1000 nM | CCn1cc(-c2cnc3ccc(Nc4cc(C(C)C)cnn4)nc3c2)ccc1=O [Example 0596, 1-ethyl-5-(6-((5-isopropylpyridazin-3-yl)amino)-1,5-naphthyridin-3-yl)pyridin-2(1H)-one]
15 | 1000 to 10000 nM | < 1000 nM | Cc1ccc(-c2cnc3ccc(Nc4cc(C(C)C)cnn4)nc3c2)cn1 [Example 0597]
16 | 1000 to 10000 nM | < 1000 nM | Cc1cncc(-c2cnc3ccc(Nc4cc(C(C)C)cnn4)nc3c2)c1 [Example 0598]
17 | 1000 to 10000 nM | < 1000 nM | Cc1ncccc1-c1cnc2ccc(Nc3cc(C(C)C)cnn3)nc2c1 [Example 0599]
18 | 1000 to 10000 nM | < 1000 nM | Cc1ccncc1-c1cnc2ccc(Nc3cc(C(C)C)cnn3)nc2c1 [Example 0600]
19 | 1000 to 10000 nM | < 1000 nM | c1cnnc(Nc2ccc3ncc(-c4cnn(CCCN5CCOCC5)c4)cc3n2)c1 [Example 0601, 7-(1-(3-Morpholinopropyl)-1H-pyrazol-4-yl)-N-(pyridazin-3-yl)-1,5-naphthyridine-2-amine]
20 | < 1000 nM | < 1000 nM | CC(C)c1cnnc(Nc2ccc3ncc(-c4ccnc(N)c4)cc3n2)c1 [Example 0602, 7-(2-aminopyridin-4-yl)-N-(5-isopropylpyridazin-3-yl)-1,5-naphthyridine-2-amine]
21 | < 1000 nM | < 1000 nM | CC(C)c1cnnc(Nc2ccc3ncc(-c4ccn(C)c(=O)c4)cc3n2)c1 [Example 0603]
22 | 10000 to 50000 nM | < 1000 nM | CC(C)c1cnnc(Nc2ccc3ncc(-c4cncnc4)cc3n2)c1 [Example 0604]
23 | < 1000 nM | < 1000 nM | CC(C)c1cnnc(Nc2ccc3ncc(-c4ncccn4)cc3n2)c1 [Example 0605]
24 | 1000 to 10000 nM | < 1000 nM | CC(C)c1cnnc(Nc2ccc3ncc(-c4cnccn4)cc3n2)c1 [Example 0606]

Second part, the compound before the results:

Row | Compound | IC50 [1] | IC50 [2]
25 | CCc1cnnc(Nc2ccc3ncc(-c4cn(C)nc4-c4cccnc4)cc3n2)c1 [Example 0542, N-(5-ethylpyridazin-3-yl)-7-(1-methyl-3-(pyridin-3-yl)-1H-pyrazol-4-yl)-1,5-naphthyridine-2-amine] | < 1000 nM | < 1000 nM
26 | Cn1cc(-c2cnc3ccc(Nc4cc(C(C)(C)O)cnn4)nc3c2)cn1 [Example 0543, 2-(6-((7-(1-Methyl-1H-pyrazol-4-yl)-1,5-naphthyridin-2-yl)amino)pyridazin-4-yl)propan-2-ol] | < 1000 nM | < 1000 nM
27 | CC(C)NC(=O)N1CCC(Cn2cc(-c3cnc4ccc(Nc5cc(C(C)C)cnn5)nc4c3)cn2)CC1 [Example 0544] | < 1000 nM | < 1000 nM
28 | Cc1nn(C)cc1-c1cnc2ccc(Nc3cc(C(C)(C)O)cnn3)nc2c1 [Example 0547] | < 1000 nM | < 1000 nM
29 | CC(=O)N1CCCC(Cn2cc(-c3cnc4ccc(Nc5cc(C(C)C)cnn5)nc4c3)cn2)C1 (stereo not drawn) [Example 0548] | < 1000 nM | < 1000 nM
30 | CC(C)c1ccnc(Nc2ccc3ncc(-c4cnn(C)c4)cc3n2)c1 [Example 0551, N-(4-isopropylpyridin-2-yl)-7-(1-methyl-1H-pyrazol-4-yl)-1,5-naphthyridine-2-amine] | < 1000 nM | 10000 to 50000 nM
31 | CC(C)c1cnnc(Nc2ccc3ncc(-c4cn(C)nc4-c4cncnc4)cc3n2)c1 [Example 0553] | < 1000 nM | < 1000 nM
32 | Cn1cc(-c2cnc3ccc(Nc4cc(N5CCOCC5)cnn4)nc3c2)cn1 [Example 0554, 7-(1-methyl-1H-pyrazol-4-yl)-N-(5-morpholinopyridazin-3-yl)-1,5-naphthyridine-2-amine] | < 1000 nM | < 1000 nM
33 | Cc1cncc(-c2nn(C)cc2-c2cnc3ccc(Nc4cc(C(C)C)cnn4)nc3c2)c1 [Example 0555] | < 1000 nM | < 1000 nM
34 | CC(C)c1cnnc(Nc2ccc3ncc(-c4cnn(C[C@@H]5CCC(=O)N5)c4)cc3n2)c1 [Example 0556] | < 1000 nM | < 1000 nM
35 | CC(C)c1cnnc(Nc2ccc3ncc(-c4cnn(CC(=O)N5CCOCC5)c4)cc3n2)c1 [Example 0558] | < 1000 nM | < 1000 nM
36 | Cn1cc(-c2cnc3ccc(Nc4cc(C(C)(C)CO[Si](C)(C)C(C)(C)C)cnn4)nc3c2)cn1 [Example 0559, N-(5-(1-((tert-butyldimethylsilyl)oxy)-2-methylpropan-2-yl)pyridazin-3-yl)-7-(1-methyl-1H-pyrazol-4-yl)-1,5-naphthyridine-2-amine] | 10000 to 50000 nM | < 1000 nM
37 | Cn1cc(-c2cnc3ccc(Nc4cc(C(C)(C)CO)cnn4)nc3c2)cn1 [Example 0560, 2-methyl-2-(6-((7-(1-methyl-1H-pyrazol-4-yl)-1,5-naphthyridin-2-yl)amino)pyridazin-4-yl)propan-1-ol] | < 1000 nM | < 1000 nM
38 | CC(C)c1cnnc(Nc2ccc3ncc(-c4cnn(CC(=O)N5CCCCC5)c4)cc3n2)c1 [Example 0561] | < 1000 nM | < 1000 nM
39 | COCC(C)(C)c1cnnc(Nc2ccc3ncc(-c4cnn(C)c4)cc3n2)c1 [Example 0562] | < 1000 nM | < 1000 nM
40 | CC(C)c1cnnc(Nc2ccc3ncc(-c4cnn(C5CC5)c4)cc3n2)c1 [Example 0563, 7-(1-Cyclopropyl-1H-pyrazol-4-yl)-N-(5-isopropylpyridazin-3-yl)-1,5-naphthyridine-2-amine] | < 1000 nM | < 1000 nM
41 | Cn1cc(-c2cnc3ccc(Nc4cc(C5CC5)cnn4)nc3c2)cn1 [Example 0564] | < 1000 nM | < 1000 nM
42 | Cc1nn(C)cc1-c1cnc2ccc(Nc3cc(C4CC4)cnn3)nc2c1 [Example 0565] | < 1000 nM | < 1000 nM
43 | CC(C)c1cnnc(Nc2ccc3ncc(-c4cnn(C[C@H]5CCC(=O)N5)c4)cc3n2)c1 [Example 0566] | < 1000 nM | < 1000 nM
44 | CC(C)c1cnnc(Nc2ccc3ncc(-c4cnn(C[C@H]5CCC(=O)N5C)c4)cc3n2)c1 [Example 0568] | < 1000 nM | < 1000 nM
45 | CCC(C)c1cnnc(Nc2ccc3ncc(-c4cnn(C)c4)cc3n2)c1 (stereo not drawn) [Example 0569] | < 1000 nM | < 1000 nM
46 | CC(C)Cc1cnnc(Nc2ccc3ncc(-c4cnn(C)c4)cc3n2)c1 [Example 0571] | < 1000 nM | < 1000 nM
47 | Cc1nc(C)c(-c2cnc3ccc(Nc4cc(C(C)C)cnn4)nc3c2)s1 [Example 0574, 7-(2,4-dimethylthiazol-5-yl)-N-(5-isopropylpyridazin-3-yl)-1,5-naphthyridine-2-amine] | 1000 to 10000 nM | < 1000 nM
48 | CC(C)c1cnnc(Nc2ccc3ncc(-c4cnn(C)c4-c4cccnc4)cc3n2)c1 [Example 0575] | < 1000 nM | < 1000 nM
49 | Cn1cc(-c2cnc3ccc(Nc4cc(C5CCC5)cnn4)nc3c2)cn1 [Example 0577, N-(5-cyclobutylpyridazin-3-yl)-7-(1-methyl-1H-pyrazol-4-yl)-1,5-naphthyridine-2-amine] | < 1000 nM | < 1000 nM
50 | CC(C)c1cnnc(Nc2ccc3ncc(-c4scnc4-c4cccnc4)cc3n2)c1 [Example 0578] | < 1000 nM | < 1000 nM
51 | CC(C)c1cnnc(Nc2ccc3ncc(-c4cn(C)nc4-c4ccccc4)cc3n2)c1 [Example 0579] | < 1000 nM | < 1000 nM
